According to publication PMC12595434, “Development of retinoid nuclear receptor pathway antagonists through targeting aldehyde dehydrogenase 1A3” (iScience, 2025):
Values joined by “and” are separate entries in the source; they are usually repeats but may differ in a detail not shown here. Equal entries are not always repeated.

Legend:
mouse T cells = experiment: T cell proliferation (CFSE) co-culture with myeloid cells; format: cell-based; conditions: 1 μM MBE1 treatment of B16F10-ALDH1A3 cells
Method: Next, to simulate paracrine signaling from tumor cells, we collected conditioned media from isogenic B16F10 cells stably expressing either vector or ALDH1A3 and added the media to the myeloid cells prior to culturing with T cells.
Bone marrow derived monocytes were enriched using MACS isolation (#130-100-629) and >95% purity of monocytes was confirmed by staining with Ly6C-PE (Clone# HK1.4; Biolegend 128008). Monocytes were cultured in RPMI1640 at 1M/well in a 6-well plate. 20 ng/ml mGM-CSF (peprotech) and 20 ng/ml mIL-4 (peprotech) were used to differentiate monocytes to monocyte derived dendritic cells (MoDCs). 100 nM atRA or 0.1% DMSO was used to treat the cells. 3 days later, floating cells were collected and 20,000 of them were cocultured with 100,000 CD4^+ T cell labeled with CFSE (Thermo fisher scientific) at 1:5000. T cell proliferation was examined ∼72hrs after the coculture. When conditioned medium was used in differentiating MoDCs, conditioned medium was first collected from 500,000 B16-vector control cells vs. B16-mALDH1A3 cells with or without 1 μM MBE1 treatment cultured in 1.5 mL medium in a 6-well plate for ∼24hrs. Fresh RPMI1640 and conditioned medium were mixed 1:1 before applying to MoDC culture. In parallel, fresh RPMI1640 medium alone is used as a control. […]

FAM204A = biological target: T1, FAM204A (Homo sapiens, UniProt Q9H8W3); experiment: Thermal proteome profiling (TPP) in A375 cells; format: cell-based
T1 construct: Treated A375 cells were harvested from 10 × 15 cm plates; endogenous in cells; host or cells: A375 melanoma cells
T1 sequence (Q9H8W3 whole entry): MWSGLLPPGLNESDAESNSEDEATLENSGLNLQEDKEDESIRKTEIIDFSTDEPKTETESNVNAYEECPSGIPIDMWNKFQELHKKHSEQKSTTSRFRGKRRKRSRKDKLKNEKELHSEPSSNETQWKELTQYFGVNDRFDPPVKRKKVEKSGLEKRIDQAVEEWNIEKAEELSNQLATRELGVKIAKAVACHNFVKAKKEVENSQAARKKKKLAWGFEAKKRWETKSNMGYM

PVRL1 = biological target: T2, PVRL1 (Homo sapiens, UniProt Q15223); experiment: Thermal proteome profiling (TPP) in A375 cells; format: cell-based; conditions: PVRL1, 1 uM
T2 construct: Treated A375 cells were harvested from 10 × 15 cm plates; endogenous in cells; host or cells: A375 melanoma cells
T2 sequence (Q15223 31-517): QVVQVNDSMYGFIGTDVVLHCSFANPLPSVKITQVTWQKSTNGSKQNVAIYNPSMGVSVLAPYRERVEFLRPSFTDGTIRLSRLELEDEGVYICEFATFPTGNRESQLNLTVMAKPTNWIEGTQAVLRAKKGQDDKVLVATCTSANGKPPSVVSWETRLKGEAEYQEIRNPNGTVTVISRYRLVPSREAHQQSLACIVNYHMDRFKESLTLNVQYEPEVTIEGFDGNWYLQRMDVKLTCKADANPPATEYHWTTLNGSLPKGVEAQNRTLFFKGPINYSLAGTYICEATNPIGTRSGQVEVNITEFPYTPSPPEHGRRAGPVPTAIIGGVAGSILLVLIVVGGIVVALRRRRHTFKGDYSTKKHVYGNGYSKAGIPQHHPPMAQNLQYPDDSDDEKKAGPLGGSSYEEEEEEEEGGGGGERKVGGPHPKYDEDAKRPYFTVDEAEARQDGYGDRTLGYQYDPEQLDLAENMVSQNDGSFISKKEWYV

Alpha2A = Alpha2A (Homo sapiens, UniProt P08913); experiment: Off-target profiling panel; format: binding; conditions: read-out: Inhibition by MBE1 at 10 μM (%)
Alpha2A, sequence (P08913 whole entry): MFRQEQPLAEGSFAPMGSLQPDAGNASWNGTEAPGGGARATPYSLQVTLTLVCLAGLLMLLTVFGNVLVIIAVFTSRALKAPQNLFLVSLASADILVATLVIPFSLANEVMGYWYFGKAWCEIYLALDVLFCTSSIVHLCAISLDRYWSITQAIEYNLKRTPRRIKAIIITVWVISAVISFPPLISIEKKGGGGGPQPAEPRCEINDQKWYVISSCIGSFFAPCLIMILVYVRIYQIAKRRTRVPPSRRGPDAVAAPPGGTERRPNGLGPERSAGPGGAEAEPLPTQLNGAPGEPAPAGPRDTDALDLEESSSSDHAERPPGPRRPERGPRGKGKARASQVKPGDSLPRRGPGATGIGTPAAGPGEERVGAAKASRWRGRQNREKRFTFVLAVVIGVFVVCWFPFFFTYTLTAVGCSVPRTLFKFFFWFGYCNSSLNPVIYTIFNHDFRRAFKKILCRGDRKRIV

CCKa = CCKa (Homo sapiens, UniProt P32238); experiment: Off-target profiling panel; format: binding; conditions: read-out: Inhibition by MBE1 at 10 μM (%)
CCKa, sequence (P32238 whole entry): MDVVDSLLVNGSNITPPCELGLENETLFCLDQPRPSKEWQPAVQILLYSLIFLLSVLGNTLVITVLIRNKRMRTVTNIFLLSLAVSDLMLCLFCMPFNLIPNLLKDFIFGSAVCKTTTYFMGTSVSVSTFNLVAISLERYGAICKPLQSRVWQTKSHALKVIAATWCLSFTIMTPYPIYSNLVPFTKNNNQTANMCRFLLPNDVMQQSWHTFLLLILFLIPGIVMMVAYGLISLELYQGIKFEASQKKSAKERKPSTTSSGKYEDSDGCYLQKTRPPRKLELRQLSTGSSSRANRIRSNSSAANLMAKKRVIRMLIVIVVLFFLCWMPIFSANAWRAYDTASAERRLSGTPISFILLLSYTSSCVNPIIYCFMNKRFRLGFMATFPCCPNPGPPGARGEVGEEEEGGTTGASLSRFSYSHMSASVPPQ

M2 = M2 (Homo sapiens, UniProt P08172); experiment: Off-target profiling panel; format: binding; conditions: read-out: Inhibition by MBE1 at 10 μM (%)
M2, sequence (P08172 whole entry): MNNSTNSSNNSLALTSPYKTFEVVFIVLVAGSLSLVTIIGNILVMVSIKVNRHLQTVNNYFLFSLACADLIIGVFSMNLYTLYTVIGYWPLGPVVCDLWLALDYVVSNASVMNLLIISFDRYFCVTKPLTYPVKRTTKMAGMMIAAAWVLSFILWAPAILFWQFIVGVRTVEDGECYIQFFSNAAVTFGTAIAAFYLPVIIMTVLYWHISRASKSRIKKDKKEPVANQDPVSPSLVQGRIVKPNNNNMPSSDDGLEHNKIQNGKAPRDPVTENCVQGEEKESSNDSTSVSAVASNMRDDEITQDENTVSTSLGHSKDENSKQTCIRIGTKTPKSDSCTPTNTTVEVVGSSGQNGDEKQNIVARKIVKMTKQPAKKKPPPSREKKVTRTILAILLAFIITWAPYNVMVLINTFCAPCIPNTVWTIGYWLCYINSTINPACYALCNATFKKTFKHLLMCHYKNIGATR

AR = AR (Homo sapiens, UniProt P10275); experiment: Off-target profiling panel; format: binding; conditions: read-out: Inhibition by MBE1 at 10 μM (%)
AR, sequence (P10275 whole entry): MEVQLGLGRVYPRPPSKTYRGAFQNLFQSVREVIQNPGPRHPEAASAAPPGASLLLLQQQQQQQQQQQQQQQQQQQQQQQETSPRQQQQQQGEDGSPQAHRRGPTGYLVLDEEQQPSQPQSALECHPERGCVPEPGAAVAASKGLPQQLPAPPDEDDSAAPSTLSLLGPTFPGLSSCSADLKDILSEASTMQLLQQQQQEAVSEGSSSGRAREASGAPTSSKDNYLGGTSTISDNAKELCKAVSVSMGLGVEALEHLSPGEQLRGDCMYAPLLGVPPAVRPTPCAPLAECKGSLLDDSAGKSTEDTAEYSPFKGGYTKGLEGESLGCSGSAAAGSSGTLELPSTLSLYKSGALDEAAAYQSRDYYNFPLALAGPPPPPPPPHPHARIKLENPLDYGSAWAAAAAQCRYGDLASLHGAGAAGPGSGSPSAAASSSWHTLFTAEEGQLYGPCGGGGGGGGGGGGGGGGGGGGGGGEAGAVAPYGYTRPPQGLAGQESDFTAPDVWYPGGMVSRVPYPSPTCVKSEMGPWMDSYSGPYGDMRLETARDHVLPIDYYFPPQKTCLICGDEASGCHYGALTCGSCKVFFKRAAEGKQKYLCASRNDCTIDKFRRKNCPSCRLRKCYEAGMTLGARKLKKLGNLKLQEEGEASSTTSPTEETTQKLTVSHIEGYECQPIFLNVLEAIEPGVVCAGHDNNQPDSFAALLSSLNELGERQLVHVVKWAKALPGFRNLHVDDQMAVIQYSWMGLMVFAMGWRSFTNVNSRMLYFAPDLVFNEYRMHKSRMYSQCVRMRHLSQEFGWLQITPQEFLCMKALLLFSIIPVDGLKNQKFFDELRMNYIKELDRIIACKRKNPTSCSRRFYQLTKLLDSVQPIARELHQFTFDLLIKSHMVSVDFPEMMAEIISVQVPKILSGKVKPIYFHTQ

ADORA2A = ADORA2A (Homo sapiens, UniProt P29274); experiment: Off-target profiling panel; format: binding; conditions: read-out: Inhibition by MBE1 at 10 μM (%)
ADORA2A, sequence (P29274 whole entry): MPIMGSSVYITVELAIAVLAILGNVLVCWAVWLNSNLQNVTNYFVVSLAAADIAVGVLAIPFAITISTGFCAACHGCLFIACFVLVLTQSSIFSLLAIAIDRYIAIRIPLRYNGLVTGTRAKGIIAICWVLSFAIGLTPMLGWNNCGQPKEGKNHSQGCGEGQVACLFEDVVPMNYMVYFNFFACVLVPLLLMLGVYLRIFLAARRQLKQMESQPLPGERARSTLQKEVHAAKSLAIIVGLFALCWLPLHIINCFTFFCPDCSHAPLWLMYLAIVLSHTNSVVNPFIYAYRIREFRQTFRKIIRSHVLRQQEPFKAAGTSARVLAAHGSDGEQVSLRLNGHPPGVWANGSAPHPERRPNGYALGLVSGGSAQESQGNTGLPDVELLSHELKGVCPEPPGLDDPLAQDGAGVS

D1 = D1 (Homo sapiens, UniProt P21728); experiment: Off-target profiling panel; format: binding; conditions: read-out: Inhibition by MBE1 at 10 μM (%)
D1, sequence (P21728 whole entry): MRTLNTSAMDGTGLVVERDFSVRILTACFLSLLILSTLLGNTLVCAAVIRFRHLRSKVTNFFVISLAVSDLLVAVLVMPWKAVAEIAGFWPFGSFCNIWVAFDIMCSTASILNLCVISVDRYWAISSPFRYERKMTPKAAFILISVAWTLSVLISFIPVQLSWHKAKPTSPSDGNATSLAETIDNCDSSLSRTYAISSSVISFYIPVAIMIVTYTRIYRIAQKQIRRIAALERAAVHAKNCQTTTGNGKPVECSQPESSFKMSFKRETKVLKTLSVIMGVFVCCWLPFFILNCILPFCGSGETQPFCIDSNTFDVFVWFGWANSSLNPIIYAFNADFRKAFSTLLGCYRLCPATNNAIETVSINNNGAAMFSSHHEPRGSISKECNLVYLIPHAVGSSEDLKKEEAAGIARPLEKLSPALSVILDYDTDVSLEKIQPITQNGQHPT

op-delta = op-delta (Homo sapiens, UniProt P41143); experiment: Off-target profiling panel; format: binding; conditions: read-out: Inhibition by MBE1 at 10 μM (%)
op-delta, sequence (P41143 whole entry): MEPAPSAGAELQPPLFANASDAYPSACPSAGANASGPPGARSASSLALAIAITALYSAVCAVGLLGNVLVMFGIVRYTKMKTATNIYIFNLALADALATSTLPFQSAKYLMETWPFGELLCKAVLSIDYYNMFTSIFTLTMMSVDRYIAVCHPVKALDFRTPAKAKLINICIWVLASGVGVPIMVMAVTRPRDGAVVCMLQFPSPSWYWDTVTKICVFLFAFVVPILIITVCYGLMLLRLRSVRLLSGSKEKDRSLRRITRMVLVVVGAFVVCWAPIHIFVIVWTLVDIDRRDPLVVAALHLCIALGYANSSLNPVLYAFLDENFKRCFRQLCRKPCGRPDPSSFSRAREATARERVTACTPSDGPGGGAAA

H2 = H2 (Homo sapiens, UniProt P25021); experiment: Off-target profiling panel; format: binding; conditions: read-out: Inhibition by MBE1 at 10 μM (%)
Beta2 = Beta2 (Homo sapiens, UniProt P07550); experiment: Off-target profiling panel; format: binding; conditions: read-out: Inhibition by MBE1 at 10 μM (%)
Beta2, sequence (P07550 whole entry): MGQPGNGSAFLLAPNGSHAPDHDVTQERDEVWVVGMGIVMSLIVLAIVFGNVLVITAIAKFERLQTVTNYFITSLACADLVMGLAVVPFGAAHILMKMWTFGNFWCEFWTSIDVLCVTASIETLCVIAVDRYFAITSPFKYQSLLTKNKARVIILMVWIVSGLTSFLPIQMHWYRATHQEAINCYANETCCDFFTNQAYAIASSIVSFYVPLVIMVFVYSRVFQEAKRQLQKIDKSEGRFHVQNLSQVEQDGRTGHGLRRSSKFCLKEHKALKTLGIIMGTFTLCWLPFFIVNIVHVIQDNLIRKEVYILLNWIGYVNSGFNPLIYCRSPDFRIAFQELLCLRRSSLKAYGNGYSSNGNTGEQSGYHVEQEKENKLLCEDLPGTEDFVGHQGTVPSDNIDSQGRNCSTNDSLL

CB1 = CB1 (Homo sapiens, UniProt P21554); experiment: Off-target profiling panel; format: binding; conditions: read-out: Inhibition by MBE1 at 10 μM (%)
ACHE = ACHE (Homo sapiens, UniProt P22303); experiment: Off-target profiling panel; format: biochemical; conditions: read-out: Inhibition by MBE1 at 10 μM (%)
MAO-A = MAO-A (Homo sapiens, UniProt P21397); experiment: Off-target profiling panel; format: biochemical; conditions: read-out: Inhibition by MBE1 at 10 μM (%)
hNav1.5 = hNav1.5 (Homo sapiens, UniProt Q14524); experiment: Off-target profiling panel; format: cell-based; conditions: read-out: Inhibition by MBE1 at 10 μM (%)
HEK293 cells = experiment: Metabolomic profiling of treated cell lines (raw metabolite counts); format: cell-based; conditions: HEK293_Inhibitor, replicates A-C
Excerpt: Supplement mmc8.xlsx, sheet "Supplement Table 7" | column: HEK293_Inhibitor_A; HEK293_Inhibitor_B; HEK293_Inhibitor_C

ALDH1A3 = biological target: T3, ALDH1A3 (Homo sapiens, UniProt P47895); experiment: Thermal proteome profiling (TPP) in A375 cells; format: cell-based; set-up: endogenous in cells; host or cells: A375 cells; conditions: 100 nM and 1 μM MBE1, A375 cells
T3 sequence (P47895 1-512): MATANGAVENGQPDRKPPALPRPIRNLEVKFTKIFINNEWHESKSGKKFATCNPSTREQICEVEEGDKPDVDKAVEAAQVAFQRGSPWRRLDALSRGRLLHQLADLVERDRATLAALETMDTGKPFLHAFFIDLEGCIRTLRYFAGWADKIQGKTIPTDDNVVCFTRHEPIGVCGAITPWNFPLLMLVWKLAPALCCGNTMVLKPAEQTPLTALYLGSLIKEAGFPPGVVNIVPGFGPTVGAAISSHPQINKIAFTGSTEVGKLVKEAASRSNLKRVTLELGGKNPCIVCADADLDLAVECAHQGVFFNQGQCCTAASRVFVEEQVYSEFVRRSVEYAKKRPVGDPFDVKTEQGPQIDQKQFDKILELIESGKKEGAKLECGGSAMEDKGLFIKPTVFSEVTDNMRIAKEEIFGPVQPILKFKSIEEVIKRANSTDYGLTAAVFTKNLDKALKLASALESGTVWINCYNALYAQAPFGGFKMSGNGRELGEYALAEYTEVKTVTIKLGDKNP

CCc1cnccc1C(=O)Nc1cc2c(cc1F)NC(=O)CC2 [MBE1, 3-ethyl-N-(7-fluoro-2-oxo-3,4-dihydro-1H-quinolin-6-yl)pyridine-4-carboxamide]
T cell proliferation block by B16F10-ALDH1A3 conditioned media (in words) (mouse T cells): proliferation block disappeared | 100nM MBE1 Tm (FAM204A): 63.4426 | DMSO-100nM MBE1 TM (FAM204A): -8.6993 | ΔTm at 1 µM (PVRL1; A-375, read-out: DMSO-1uM MBE1 TM shift): -15.1 °C | 1uM MBE1 Tm (PVRL1): 64 | inhibition at 10 µM (Alpha2A): -1.15% | inhibition at 10 µM (CCKa): -1.45% | inhibition at 10 µM (M2): -6.51% | inhibition at 10 µM (AR): -10.1% | inhibition at 10 µM (ADORA2A): -15.7% | inhibition at 10 µM (D1): -16.4% | inhibition at 10 µM (op-delta): 5.54% | inhibition at 10 µM (H2): 4.29% | inhibition at 10 µM (Beta2): 3.23% | inhibition at 10 µM (CB1): -7.11% | inhibition at 10 µM (ACHE): 5.81% | inhibition at 10 µM (MAO-A): -8.05% | inhibition at 10 µM (hNav1.5): -0.59% | Raw counts of 2-Hydroxybutyric acid (HEK293 cells): 460406 and 376147 and 351707 | Raw counts of 3-Hydroxybutyric acid (HEK293 cells): 2036524 and 1752460 and 1814028 | Raw counts of 3-Phosphoglycerate (HEK293 cells): 54741.2 and 47239.6 and 67920.5 | Raw counts of 3-Phosphoserine (HEK293 cells): 379486 and 687080 and 597417 | Raw counts of 6-Phosphogluconate (HEK293 cells): 18526.1 and 6100.06 and 8926.16 | Raw counts of Carbamoyl phosphate (HEK293 cells): 141074 and 139557 and 164484 | Raw counts of Citrulline (HEK293 cells): 520045 and 463794 and 470630 | Raw counts of Cytidine (HEK293 cells): 7575.12 and 7385.3 and 7444.6 | Raw counts of Hypoxanthine (HEK293 cells): 234438 and 380137 and 398453 | Raw counts of Isoleucine (HEK293 cells): 1.16E+08 and 1.15E+08 (2×) | Raw counts of Lactate (HEK293 cells): 5.47E+08 and 4.80E+08 and 4.40E+08 | Raw counts of Leucine (HEK293 cells): 9.35E+07 and 8.69E+07 and 8.73E+07 | Raw counts of Methionine (HEK293 cells): 2.07E+07 and 2.11E+07 and 2.08E+07 | Raw counts of N-acetyl-glutamine (HEK293 cells): 1122707 and 1247401 and 1071948 | Raw counts of Orotate (HEK293 cells): 98388.4 and 120085 and 73533.2 | Raw counts of Phenylalanine (HEK293 cells): 8.50E+07 and 7.66E+07 and 8.04E+07 | Raw counts of Phosphoenolpyruvate (HEK293 cells): 10515.5 and 13057.1 and 9934.64 | Raw counts of Pyridoxine (HEK293 cells): 4.65E+07 and 4.40E+07 and 4.42E+07 | Raw counts of Pyruvate (HEK293 cells): 7987114 and 6360434 and 6733166 | Raw counts of Ribitol (HEK293 cells): 2730293 and 2993915 and 2689879 | Raw counts of Sorbitol (HEK293 cells): 1.69E+07 and 1.55E+07 and 1.59E+07 | Raw counts of Taurine (HEK293 cells): 2.13E+07 and 2.37E+07 and 2.28E+07 | Raw counts of Tryptophan (HEK293 cells): 1.16E+07 and 1.11E+07 and 1.10E+07 | Raw counts of Tyrosine (HEK293 cells): 4.24E+07 and 4.04E+07 and 3.95E+07 | Raw counts of UDP (HEK293 cells): 175249 and 191418 and 196338 | Raw counts of Uracil (HEK293 cells): 1015162 and 942022 and 907732 | Raw counts of Uridine (HEK293 cells): 82140.1 and 83430.9 and 107857 | Raw counts of Valine (HEK293 cells): 7.12E+07 and 6.86E+07 and 6.72E+07 | Raw counts of Xanthine (HEK293 cells): 7637154 and 6442670 and 6627934 | thermal stabilization of ALDH1A3 in TPP (in words) (ALDH1A3): stabilized
